Six molecules from article PMC8805316, “NanoBRET in C. elegans illuminates functional receptor interactions in real time” (BMC Molecular and Cell Biology, 2022) can be followed below.

Entries after “also recorded” stand apart in the source; their conditions may differ. Non-standard residues stand in square brackets, D forms with d. Residues, ends and D or L forms follow the SMILES beside them. No end group written: not given here. *: point of attachment. 5TAMRA = CN(C)c1ccc2c(c1)Oc1cc(N(C)C)ccc1C21OC(=O)c2cc(C(=O)*)ccc21; Dap(TAM) = not defined here; Dap = NC[C@H](N)C(=O)O Some results are limits rather than exact numbers.

Test [1] concerns empty vector-transfected COS-7 cells. Description: cAMP accumulation assay (AlphaScreen), COS-7 cells with empty vector (Fig. S3C). It is filed as cell-based, African green monkey. To be noted: 100 μM peptide, mean ± SEM of 5 independent assays, DMSO control 5.39 ± 2.15. How it is done:
(§1) All in vitro experiments were carried out using either HEK293 cells (Homo sapiens, embryonic kidney, DSMZ (German Collection of Microorganisms and Cell Cultures) ACC 305) or COS-7 cells (African green monkey, cercopithecus aethiops, kidney, DSMZ (German Collection of Microorganisms and Cell Cultures) ACC 60). HEK293 cells were kept in Dulbecco’s Modified Eagle’s Medium (DMEM) with Ham’s F-12 (v/v) and 15% (v/v) heat-inactivated fetal calf serum (FCS), while COS-7 cells were cultured in DMEM with 10% (v/v) FCS and 1% (v/v) Penicillin-Streptomycin. All cells were kept at 37 °C under a humidified atmosphere (5% CO2).
Gs-coupling of LAT-1, quantified by detection of intracellular cAMP accumulation, was measured using an AlphaScreen cAMP detection kit (PerkinElmer, USA). Briefly, COS-7 cells (15,000 cells/ well) were transfected in 96-well plates with either 200 ng of LAT-1-encoding plasmid or empty vector using Lipofectamine2000 (ThermoFisher Scientific). […] The following steps were conducted as stated in the manufactures’ protocol of the AlphaScreen cAMP detection kit (PerkinElmer, USA) and an EnVision plate reader (PerkinElmer, USA) was used to detect the fluorescence. The data were analyzed with GraphPad Prism version 6 (GraphPad Software) are presented in x-fold over the corresponding empty vector control.
Background: Changes in cAMP serve as a functional read-out for many G protein-coupled receptors.

The next test concerns LAT-1. Description: cAMP accumulation assay (AlphaScreen), COS-7 cells with LAT-1 plasmid (Fig. S3C). It is filed as cell-based, C. elegans. Conditions: for cAMP conc.: LAT-1 plasmid, 100 μM peptide, mean ± SEM of 5 independent assays, DMSO control 4.66 ± 1.72. How it is done: as §1
Gs-coupling of LAT-1, quantified by detection of intracellular cAMP accumulation, was measured using an AlphaScreen cAMP detection kit (PerkinElmer, USA). Briefly, COS-7 cells (15,000 cells/ well) were transfected in 96-well plates with either 200 ng of LAT-1-encoding plasmid or empty vector using Lipofectamine2000 (ThermoFisher Scientific). 48 h post transfection, the cells were stimulated with 100 μM peptide solution in HBSS containing 1 mM 3-isobutyl-1-methylxanthine (IBMX) and 1% DMSO and control buffer without peptide for 30 min at 37 °C. Subsequently, the medium was displaced with lysis buffer (5 mM HEPES, 0.3% Tween-20, 0.1% BSA, 1 mM IBMX, pH 7.6) and plates were frozen at − 80 °C until further use. The following steps were conducted as stated in the manufactures’ protocol of the AlphaScreen cAMP detection kit (PerkinElmer, USA) and an EnVision plate reader (PerkinElmer, USA) was used to detect the fluorescence. The data were analyzed with GraphPad Prism version 6 (GraphPad Software) are presented in x-fold over the corresponding empty vector control.

The target of the next test is T1, Nluc::LAT-1 (Caenorhabditis elegans, UniProt G5EDW2).
T1 construct: Lat-1p::lat-1(1–249)::Nluc::lat-1(250–650)::GFP::lat-1(651–1015); GFP, inserted between residues 650 and 651 (so in the source); expressed in transfected cells; host or cells: transgenic C. elegans (extrachromosomal array, lat-1 knockout background), incised young adult worms
The test is described as follows: biochemical. The test is classed as binding, C. elegans. How it is done:
All measurements were conducted using synchronized young adult worms (1 day post L4). Individuals were washed twice with HBSS (Hanks’ balanced salt solution with 25 mM HEPES, pH 7.4, 37 °C) and the number of worms/ μl was calculated.
(§2) For luminescence measurements of intact worms, animals (1; 10; 50; 100 or 500) were directly transferred into the wells of a white flat-bottom 384-well plate in 50 μl HBSS buffer. Worms to be cut were pre-washed with M9 + 0.1% Tween to avoid sticking of worms to the dish and subsequently transferred in 2 ml of HBSS. Incisions were made in the middle of the body with a scalpel blade and worms were immediately afterwards transferred with a glass pipette into HBSS buffer on ice. For mechanically cracking, a worm suspension was homogenized in tubes with 150 μl HBSS and six glass beads (Ø = 3 mm) using with a Precellys homogenizer (Bertin instruments, France) for 40 s at 5000 rpm. Samples were placed on ice until further usage.
For BRET binding assays in vivo, the nanoluciferase (Nluc) was applied as energy donor and either peptides labeled with the TAM fluorophore or the mNeonGreen fluorescent protein fused to a receptor served as acceptor.
30 Nluc-expressing worms with incisions in 50 μl BRET buffer were incubated with dissolving buffer or peptide solutions of final concentrations ranging from 0.05–10 μM in a 384-well plate. During a 25 min incubation with gentle shaking, 10 μl Nano-Glo Live Cell Reagent (N2011, Promega, USA) of a 5x stock were added according to manufacturer’s instructions after 15 min to each well. Competition-binding assays were performed similarly, but additionally, unlabeled peptide (final concentrations 0.016–10 μM) was pipetted into each well and 5 μl of a 10x stock Nano-Glo Live cell reagent was applied after 15 min.
Luminescence (L) and fluorescence (F) were detected with a microplate plate reader (Tecan Spark) using the following filter set: donor = 430–470 nm, acceptor = 550–700 nm with 1000 ms integration time. BRET was calculated by dividing F values by L values. For each experiment, the background signal of donor-only cells was subtracted, such that the BRET ratio at 0 μM ligand equals 0.00. In Fig. 3B (left) and Fig. 3D, the mean of n = 4 (NPR-11) or n = 3 (LAT-1) independent, individually background-corrected single experiments is presented.

The target in test [2] is Nluc::NPR-11::eYFP in membranes of transfected HEK293 cells (C. elegans) (UniProt Q18179).
Test [3] has the same target. Description: FRET or BRET; NanoBRET binding in vitro: membranes of HEK293 cells transiently transfected with Nluc::NPR-11::eYFP (0.5 μg total protein), TAM-labeled peptide 10^-12 M to 10^-5 M, BRET buffer with 0.1% BSA and Pefabloc SC, 10 min, room temperature, coelenterazine H 4 μM; three-parameter logistic …. (In general: Bioluminescence resonance energy transfer reports proximity on the nanometre scale.)

In test [4] the target is Nluc::NPR-11 (Nanoluciferase fused to the extracellular N terminus of the neuropeptide receptor NPR-11), expressed in C. elegans (C. elegans) (UniProt Q18179). The test is described as follows: FRET or BRET; NanoBRET binding in vivo: 30 Nluc-expressing C. elegans (L4 + 1 day) with incisions in 50 μl BRET buffer (HBSS + 25 mM HEPES, pH 7.4), TAM-labeled peptide 0.05-10 μM, 25 min incubation, Nano-Glo Live Cell Reagent (furimazine); Kd from one-site total and nonspecific binding fit with the scrambled peptide as nonspecific.

Test [5] has the same target. The test is described as above. This is another data set of the same source.
The next test has as its system Nanoluciferase (Nluc). Description: Luminescence of luciferase substrate in cut Nluc-expressing worms (Fig. 1E). To be noted: vs coelenterazine H. How it is done:
as §2
50 prepared worms were transferred into a white flat bottom 384-well plate in a total volume of 50 μl HBSS + 25 mM HEPES (pH 7.4; denoted BRET buffer). Immediately after adding coelenterazine H solution (Nanolight/ Prolume, USA) to a final concentration of 4 μM, luminescence was detected using an EnVision plate reader (PerkinElmer, USA) and a NanoBRET Blue 460/80 nm filter with 1000 ms integration time (five repeats every 5 min for long time observation).

In test [6] the target is T2, Nluc::LAT-1 (lat-1p::lat-1(1-249)::Nluc::lat-1(250-650)::GFP::lat-1(651-1015)), expressed in C. elegans (C. elegans, UniProt G5EDW2 28-1014).
T2 sequence (looked up): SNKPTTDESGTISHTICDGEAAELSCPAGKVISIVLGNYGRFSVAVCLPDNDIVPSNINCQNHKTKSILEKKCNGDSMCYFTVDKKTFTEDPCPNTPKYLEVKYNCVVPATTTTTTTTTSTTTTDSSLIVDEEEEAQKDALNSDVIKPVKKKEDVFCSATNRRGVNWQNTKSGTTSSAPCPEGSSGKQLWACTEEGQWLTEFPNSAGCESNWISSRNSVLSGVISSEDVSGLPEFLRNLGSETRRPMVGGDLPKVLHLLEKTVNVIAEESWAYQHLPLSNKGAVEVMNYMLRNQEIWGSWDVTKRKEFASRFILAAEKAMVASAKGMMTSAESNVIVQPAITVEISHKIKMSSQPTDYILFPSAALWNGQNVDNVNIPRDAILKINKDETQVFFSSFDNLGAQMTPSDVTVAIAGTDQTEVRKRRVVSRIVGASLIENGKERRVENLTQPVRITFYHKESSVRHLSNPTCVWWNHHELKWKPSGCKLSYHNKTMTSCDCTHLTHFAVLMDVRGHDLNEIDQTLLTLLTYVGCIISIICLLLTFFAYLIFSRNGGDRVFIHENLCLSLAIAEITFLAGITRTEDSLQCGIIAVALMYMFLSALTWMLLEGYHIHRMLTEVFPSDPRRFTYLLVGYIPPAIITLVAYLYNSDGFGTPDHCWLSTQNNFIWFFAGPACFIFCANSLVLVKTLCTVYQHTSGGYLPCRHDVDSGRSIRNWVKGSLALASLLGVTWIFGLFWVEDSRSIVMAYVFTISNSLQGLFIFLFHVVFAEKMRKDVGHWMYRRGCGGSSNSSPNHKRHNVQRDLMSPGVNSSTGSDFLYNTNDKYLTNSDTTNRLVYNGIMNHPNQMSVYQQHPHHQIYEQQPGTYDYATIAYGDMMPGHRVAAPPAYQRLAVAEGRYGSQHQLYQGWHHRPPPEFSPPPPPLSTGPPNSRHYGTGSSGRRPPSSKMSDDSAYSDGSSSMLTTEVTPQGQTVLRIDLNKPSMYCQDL
The test is described as follows: cell-based or functional assay.

Nluc::NPR-11::eYFP in membranes of transfected HEK293 cells (C. elegans), sequence (Q18179 whole entry): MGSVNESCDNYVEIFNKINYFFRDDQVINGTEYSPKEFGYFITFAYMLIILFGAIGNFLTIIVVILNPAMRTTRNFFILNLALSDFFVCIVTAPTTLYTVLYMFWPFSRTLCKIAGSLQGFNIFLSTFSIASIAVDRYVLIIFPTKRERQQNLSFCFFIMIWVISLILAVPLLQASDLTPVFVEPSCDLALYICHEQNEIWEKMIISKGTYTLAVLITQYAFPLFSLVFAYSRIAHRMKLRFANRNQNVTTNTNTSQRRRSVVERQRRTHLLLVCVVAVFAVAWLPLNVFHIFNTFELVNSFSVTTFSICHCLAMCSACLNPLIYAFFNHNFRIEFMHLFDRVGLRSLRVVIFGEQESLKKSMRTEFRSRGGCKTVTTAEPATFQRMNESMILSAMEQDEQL
Nluc::NPR-11 (Nanoluciferase fused to the extracellular N terminus of the neuropeptide receptor NPR-11), expressed in C. elegans (C. elegans), sequence (Q18179 whole entry, the tested form may be a part): as the sequence (Q18179 whole entry) above

A word on the Kd: it is the concentration at which binding is half-saturated. In the case of `CSCC[C@H](N)C(=O)N[C@@H](CC(=O)O)C(=O)N[C@H](C(=O)N[C@@H](CCCNC(=N)N)C(=O)N[C@@H](C)C(=O)N[C@H](C(=O)N[C@@H](Cc1c[nH]cn1)C(=O)N[C@@H](Cc1c[nH]cn1)C(=O)NCC(=O)N[C@H](C(=O)N[C@@H](CC(C)C)C(=O)N[C@@H](Cc1ccccc1)C(=O)N[C@@H](CNC(=O)c1ccc2c(c1)C(=O)OC21c2ccc(N(C)C)cc2Oc2cc(N(C)C)ccc21)C(=O)O)C(C)C)C(C)C)[C@@H](C)O` [TAM-scrpLAT-1] (H-MDTRAVHHGVLF[Dap](5TAMRA)-OH), the cAMP conc. in test [1] was found to be 4.45 ± 0.71 nM; in the test with LAT-1, 4.63 ± 0.81 nM. The “cAMP accumulation / receptor activation” value in the test with LAT-1 (100 μM) was “did not lead to a cAMP accumulation; also recorded: does not activate the receptor”. Also, at Nluc::LAT-1, the Kd was > 10000 nM. Besides, at Nluc::LAT-1 (at 10 μM), the “BRET ratio relative to TAM-pLAT-1” value was “one-third higher”.
With “TAM-FLP-34-1 (tetramethylrhodamine-labeled FLP-34-1) (peptide)”, the cAMP reporter gene assay, forskolin-stimulated HEK293 cells transfected with NPR-11::eYFP (no Nluc): EC50 of NPR-11 activation in test [2] was 0.5 nM. The Kd in test [3] was found to be 388 nM; in [4], 1500 nM. In test [5], the increase in the BRET ratio at 10 μM stood at 0.08.
For the molecule `CSCC[C@H](NC(=O)[C@H](CC(C)C)NC(=O)[C@@H](NC(=O)[C@H](C)NC(=O)[C@H](Cc1ccccc1)NC(=O)[C@H](Cc1c[nH]cn1)NC(=O)[C@@H](N)[C@@H](C)O)C(C)C)C(=O)N[C@@H](CC(=O)O)C(=O)N[C@H](C(=O)N[C@@H](CCCNC(=N)N)C(=O)NCC(=O)N[C@@H](Cc1c[nH]cn1)C(=O)N[C@@H](CNC(=O)c1ccc2c(c1)C(=O)OC21c2ccc(N(C)C)cc2Oc2cc(N(C)C)ccc21)C(=O)O)C(C)C` [TAM-pLAT-1] (H-THFAVLMDVRGH[Dap](5TAMRA)-OH), the cAMP conc. in test [1] turned out to be 2.86 ± 0.60 nM; in the test with LAT-1, 3.69 ± 0.70 nM. The “cAMP accumulation over control” value in the test with LAT-1 (100 μM, 30 min, 37 °C, IBMX) is 1.5 -fold. In addition, the Kd on Nluc::LAT-1 is > 10000 nM.
In turn, FLP-34-1 (unlabeled) (peptide) showed a cAMP reporter gene assay, forskolin-stimulated HEK293 cells transfected with NPR-11::eYFP (no Nluc): EC50 of NPR-11 activation in test [2] of 2.3 nM.
With `O=c1c(Cc2ccco2)nc2c(Cc3ccccc3)[nH]c(-c3ccccc3)cn1-2` [furimazine], in the test on Nanoluciferase (Nluc), the “luminescence signal over time” value is “stable values over the entire time period; also recorded: lower but more stable luminescence signal”.

B1: TAM-pLAT-1 (TAM-labeled synthetic peptide derived from the tethered agonist sequence of LAT-1) (peptide)
chain: THFAVLMDVRGH-{Dap(TAM)}
modifications: reading uncertain
On to B1, for which the “cAMP accumulation (AlphaScreen) in COS-7 cells transfected with a LAT-1-encoding plasmid, 100 μM peptide” value in [6] was 1.5 fold over control.
